According to PubChem BioAssay (NCI):
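Cultured in 96-well plates, cells were exposed to test compound for 48 hours across five concentrations. Abbreviation: GI50, concentration required for 50% inhibition of growth. TGI is the concentration that stops growth completely.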

Legend:
Experiment in all cases: NCI-60 cell line screen, 48 h; in the data active means GI50 below about 0.43 µM; inactive means the rest
786-0 renal = tested on: 786-0 renal
A498 renal = tested on: A498 renal
A549 NSCLC = tested on: A549 NSCLC
CAKI-1 renal = tested on: CAKI-1 renal
CCRF-CEM leukemia = tested on: CCRF-CEM leukemia
COLO 205 colon = tested on: COLO 205 colon
DLD-1 colon = tested on: DLD-1 colon
DMS 114 small cell lung = tested on: DMS 114 small cell lung
EKVX NSCLC = tested on: EKVX NSCLC
HCC-2998 colon = tested on: HCC-2998 colon
HCT-15 colon = tested on: HCT-15 colon
HL-60(TB) leukemia = tested on: HL-60(TB) leukemia
HOP-18 NSCLC = tested on: HOP-18 NSCLC
HOP-62 NSCLC = tested on: HOP-62 NSCLC
HOP-92 NSCLC = tested on: HOP-92 NSCLC
IGROV1 ovarian = tested on: IGROV1 ovarian
K-562 leukemia = tested on: K-562 leukemia
KM12 colon = tested on: KM12 colon
KM20L2 colon = tested on: KM20L2 colon
LXFL 529 NSCLC = tested on: LXFL 529 NSCLC
M14 melanoma = tested on: M14 melanoma
M19-MEL melanoma = tested on: M19-MEL melanoma
MOLT-4 leukemia = tested on: MOLT-4 leukemia
NCI-H226 lung = tested on: NCI-H226 lung
NCI-H23 lung = tested on: NCI-H23 lung
OVCAR-3 ovarian = tested on: OVCAR-3 ovarian
OVCAR-4 ovarian = tested on: OVCAR-4 ovarian
OVCAR-5 ovarian = tested on: OVCAR-5 ovarian
OVCAR-8 ovarian = tested on: OVCAR-8 ovarian
RXF 393 renal = tested on: RXF 393 renal
RXF-631 renal = tested on: RXF-631 renal
SF-295 CNS = tested on: SF-295 CNS
SF-539 CNS = tested on: SF-539 CNS
SK-MEL-2 melanoma = tested on: SK-MEL-2 melanoma
SK-MEL-28 melanoma = tested on: SK-MEL-28 melanoma
SK-OV-3 ovarian = tested on: SK-OV-3 ovarian
SN12C renal = tested on: SN12C renal
SNB-19 CNS = tested on: SNB-19 CNS
SNB-75 CNS = tested on: SNB-75 CNS
SNB-78 CNS = tested on: SNB-78 CNS
SW-620 colon = tested on: SW-620 colon
TK-10 renal = tested on: TK-10 renal
UACC-257 melanoma = tested on: UACC-257 melanoma
UO-31 renal = tested on: UO-31 renal
XF 498 CNS = tested on: XF 498 CNS
ACHN renal = tested on: ACHN renal
HCT-116 colon = tested on: HCT-116 colon
HT29 colon = tested on: HT29 colon
LOX IMVI melanoma = tested on: LOX IMVI melanoma
MALME-3M melanoma = tested on: MALME-3M melanoma
NCI-H460 lung = tested on: NCI-H460 lung
NCI-H522 lung = tested on: NCI-H522 lung
RPMI-8226 leukemia = tested on: RPMI-8226 leukemia
SF-268 CNS = tested on: SF-268 CNS
SK-MEL-5 melanoma = tested on: SK-MEL-5 melanoma
SR leukemia = tested on: SR leukemia
U251 CNS = tested on: U251 CNS
UACC-62 melanoma = tested on: UACC-62 melanoma
DMS 273 small cell lung = tested on: DMS 273 small cell lung

O=C1OC(c2cccc(C(F)(F)F)c2)c2ccc3ccccc3c21 (centres undefined)
inactive: GI50 (786-0 renal) > 100 µM | GI50 (A498 renal) > 100 µM | GI50 (CAKI-1 renal) > 100 µM | GI50 (CCRF-CEM leukemia) 5.19 µM | GI50 (COLO 205 colon) > 100 µM | GI50 (EKVX NSCLC) > 100 µM | GI50 (HCC-2998 colon) > 100 µM | GI50 (HCT-15 colon) 6.21 µM | GI50 (HOP-18 NSCLC) > 100 µM | GI50 (HOP-62 NSCLC) > 100 µM | GI50 (IGROV1 ovarian) > 100 µM | GI50 (K-562 leukemia) 25 µM | GI50 (KM12 colon) > 100 µM | GI50 (KM20L2 colon) > 100 µM | GI50 (M14 melanoma) > 100 µM | GI50 (M19-MEL melanoma) > 100 µM | GI50 (MOLT-4 leukemia) 4.99 µM | GI50 (NCI-H226 lung) > 100 µM | GI50 (OVCAR-3 ovarian) > 100 µM | GI50 (OVCAR-4 ovarian) > 100 µM | GI50 (OVCAR-5 ovarian) > 100 µM | GI50 (OVCAR-8 ovarian) > 100 µM | GI50 (RXF-631 renal) > 100 µM | GI50 (SK-MEL-2 melanoma) > 100 µM | GI50 (SK-MEL-28 melanoma) > 100 µM | GI50 (SK-OV-3 ovarian) > 100 µM | GI50 (SN12C renal) > 100 µM | GI50 (SNB-19 CNS) > 100 µM | GI50 (SW-620 colon) > 100 µM | GI50 (TK-10 renal) > 100 µM | GI50 (UACC-257 melanoma) 8.64 µM
> 100 µM: TGI (786-0 renal) | TGI (A498 renal) | TGI (A549 NSCLC) | TGI (CAKI-1 renal) | TGI (CCRF-CEM leukemia) | TGI (COLO 205 colon) | TGI (DLD-1 colon) | TGI (DMS 114 small cell lung) | TGI (EKVX NSCLC) | TGI (HCC-2998 colon) | TGI (HCT-15 colon) | TGI (HL-60(TB) leukemia) | TGI (HOP-18 NSCLC) | TGI (HOP-62 NSCLC) | TGI (HOP-92 NSCLC) | TGI (IGROV1 ovarian) | TGI (K-562 leukemia) | TGI (KM12 colon) | TGI (KM20L2 colon) | TGI (LXFL 529 NSCLC) | TGI (M14 melanoma) | TGI (M19-MEL melanoma) | TGI (MOLT-4 leukemia) | TGI (NCI-H226 lung) | TGI (NCI-H23 lung) | TGI (OVCAR-3 ovarian) | TGI (OVCAR-4 ovarian) | TGI (OVCAR-5 ovarian) | TGI (OVCAR-8 ovarian) | TGI (RXF 393 renal) | TGI (RXF-631 renal) | TGI (SF-295 CNS) | TGI (SF-539 CNS) | TGI (SK-MEL-2 melanoma) | TGI (SK-MEL-28 melanoma) | TGI (SK-OV-3 ovarian) | TGI (SN12C renal) | TGI (SNB-19 CNS) | TGI (SNB-75 CNS) | TGI (SNB-78 CNS) | TGI (SW-620 colon) | TGI (TK-10 renal) | TGI (UACC-257 melanoma) | TGI (UO-31 renal) | TGI (XF 498 CNS)

CN(C)CCc1ccc(Cl)cc1Cl
> 100 µM: TGI (786-0 renal) | TGI (A498 renal) | TGI (A549 NSCLC) | TGI (ACHN renal) | TGI (CAKI-1 renal) | TGI (CCRF-CEM leukemia) | TGI (COLO 205 colon) | TGI (DLD-1 colon) | TGI (DMS 114 small cell lung) | TGI (EKVX NSCLC) | TGI (HCC-2998 colon) | TGI (HCT-116 colon) | TGI (HCT-15 colon) | TGI (HL-60(TB) leukemia) | TGI (HOP-18 NSCLC) | TGI (HOP-62 NSCLC) | TGI (HOP-92 NSCLC) | TGI (HT29 colon) | TGI (IGROV1 ovarian) | TGI (K-562 leukemia) | TGI (KM12 colon) | TGI (KM20L2 colon) | TGI (LOX IMVI melanoma) | TGI (LXFL 529 NSCLC) | TGI (M14 melanoma) | TGI (M19-MEL melanoma) | TGI (MALME-3M melanoma) | TGI (MOLT-4 leukemia) | TGI (NCI-H23 lung) | TGI (NCI-H460 lung) | TGI (NCI-H522 lung) | TGI (OVCAR-4 ovarian) | TGI (OVCAR-5 ovarian) | TGI (OVCAR-8 ovarian) | TGI (RPMI-8226 leukemia) | TGI (RXF 393 renal) | TGI (RXF-631 renal) | TGI (SF-268 CNS) | TGI (SF-295 CNS) | TGI (SF-539 CNS) | TGI (SK-MEL-2 melanoma) | TGI (SK-MEL-28 melanoma) | TGI (SK-MEL-5 melanoma) | TGI (SK-OV-3 ovarian) | TGI (SN12C renal) | TGI (SNB-19 CNS) | TGI (SNB-75 CNS) | TGI (SR leukemia) | TGI (SW-620 colon) | TGI (TK-10 renal) | TGI (U251 CNS) | TGI (UACC-257 melanoma) | TGI (UACC-62 melanoma) | TGI (UO-31 renal) | TGI (XF 498 CNS)

N#C/C(=C/c1ccco1)C(=O)c1ccccc1
> 100 µM: TGI (786-0 renal) | TGI (A498 renal) | TGI (A549 NSCLC) | TGI (ACHN renal) | TGI (CAKI-1 renal) | TGI (CCRF-CEM leukemia) | TGI (COLO 205 colon) | TGI (DLD-1 colon) | TGI (DMS 114 small cell lung) | TGI (EKVX NSCLC) | TGI (HCC-2998 colon) | TGI (HCT-116 colon) | TGI (HCT-15 colon) | TGI (HL-60(TB) leukemia) | TGI (HOP-18 NSCLC) | TGI (HOP-92 NSCLC) | TGI (HT29 colon) | TGI (IGROV1 ovarian) | TGI (K-562 leukemia) | TGI (KM12 colon) | TGI (LOX IMVI melanoma) | TGI (LXFL 529 NSCLC) | TGI (M14 melanoma) | TGI (M19-MEL melanoma) | TGI (MALME-3M melanoma) | TGI (MOLT-4 leukemia) | TGI (NCI-H226 lung) | TGI (NCI-H23 lung) | TGI (NCI-H460 lung) | TGI (NCI-H522 lung) | TGI (OVCAR-4 ovarian) | TGI (OVCAR-5 ovarian) | TGI (OVCAR-8 ovarian) | TGI (RPMI-8226 leukemia) | TGI (RXF-631 renal) | TGI (SF-268 CNS) | TGI (SF-295 CNS) | TGI (SF-539 CNS) | TGI (SK-MEL-2 melanoma) | TGI (SK-MEL-28 melanoma) | TGI (SK-MEL-5 melanoma) | TGI (SK-OV-3 ovarian) | TGI (SN12C renal) | TGI (SNB-75 CNS) | TGI (SNB-78 CNS) | TGI (SR leukemia) | TGI (SW-620 colon) | TGI (TK-10 renal) | TGI (U251 CNS) | TGI (UACC-257 melanoma) | TGI (UACC-62 melanoma) | TGI (UO-31 renal) | TGI (XF 498 CNS)

N/N=C(/Cc1ccccc1)NNC(N)=S
76 µM: TGI (NCI-H522 lung)
> 100 µM: TGI (786-0 renal) | TGI (A498 renal) | TGI (A549 NSCLC) | TGI (ACHN renal) | TGI (CCRF-CEM leukemia) | TGI (COLO 205 colon) | TGI (DLD-1 colon) | TGI (DMS 114 small cell lung) | TGI (DMS 273 small cell lung) | TGI (EKVX NSCLC) | TGI (HCC-2998 colon) | TGI (HCT-15 colon) | TGI (HL-60(TB) leukemia) | TGI (HOP-18 NSCLC) | TGI (HOP-62 NSCLC) | TGI (HOP-92 NSCLC) | TGI (HT29 colon) | TGI (IGROV1 ovarian) | TGI (K-562 leukemia) | TGI (KM12 colon) | TGI (KM20L2 colon) | TGI (LOX IMVI melanoma) | TGI (LXFL 529 NSCLC) | TGI (M14 melanoma) | TGI (M19-MEL melanoma) | TGI (MALME-3M melanoma) | TGI (MOLT-4 leukemia) | TGI (NCI-H226 lung) | TGI (NCI-H460 lung) | TGI (OVCAR-4 ovarian) | TGI (OVCAR-5 ovarian) | TGI (OVCAR-8 ovarian) | TGI (RPMI-8226 leukemia) | TGI (RXF 393 renal) | TGI (RXF-631 renal) | TGI (SF-268 CNS) | TGI (SF-295 CNS) | TGI (SF-539 CNS) | TGI (SK-MEL-2 melanoma) | TGI (SK-MEL-28 melanoma) | TGI (SK-OV-3 ovarian) | TGI (SNB-75 CNS) | TGI (SW-620 colon) | TGI (TK-10 renal) | TGI (U251 CNS) | TGI (UACC-257 melanoma) | TGI (UACC-62 melanoma) | TGI (UO-31 renal) | TGI (XF 498 CNS)
